Measured values published in article PMC8151276, “An Integrated Approach toward NanoBRET Tracers for Analysis of GPCR Ligand Engagement” (Molecules, 2021).

Experiments:
Format in all cases: binding
FZD5 = molecular target: T1, FZD5 (Homo sapiens, UniProt Q13467); experiment: NanoBRET screen HiBiT-FZD5 in HEK293
T1 construct: purchased Promega (in-house HiBiT-GPCR construct library, NanoBRET)
Method: (§1) Each tracer candidate was screened across the entire library of HiBiT-GPCR constructs using NanoBRET as the detection modality. As depicted in Figure 4A, the specificity of interactions was evaluated through decrease in BRET due to competitive displacement of a bound tracer by excess parental compound. Each tracer was analyzed for binding to each HiBiT-GPCR fusion in the absence and in the presence of competing parental compound. Briefly, HEK293 cells were transfected with HiBiT-GPCR constructs diluted into promoterless DNA to reduce expression and maximize translocation to the cell surface. Each tracer candidate was then screened at concentrations of 1 μM and 0.1 μM across cells expressing these fusions. Cells were treated for 1.5 h with tracer either alone or in the presence of 20 μM competing parental compound (i.e., control). BRET was measured upon addition of purified LgBiT and subsequent complementation with HiBiT genetically fused to a GPCR. The specificity of interactions was assessed through a decrease in BRET signal due to competitive displacement of the bound tracer. To further gauge the robustness of these interactions, the fold response over the control (i.e., BRETtracer/BRETcontrol) was calculated. We chose a 1.5-fold response, which translates to ≥7-fold signal over noise as the minimal threshold required to score an interaction as positive. […]. Below we highlight the screening results obtained for our exemplary fluorescent tracers based on Clozapine, Amitriptyline and AZD1283.
(§2) HiBiT-GPCR DNA constructs were diluted in 10 mM Tris pH 8 to a final concentration of 0.01 μg/μL, arrayed in 96-well plates and stored at −20 °C. For transfection, HEK293 cells were suspended in Opti-MEM (without phenol red) supplemented with 2% fetal bovine serum (Seradigm) and 100 units/mL penicillin–streptomycin (Gibco) at a final concentration of 220,000 cells/mL and dispensed into white 96-well plates at 90 μL/well. Subsequent transfections and screens were carried using an Agilent Bravo Automated Liquid Handling Platform. First, the 96-well HiBiT DNA arrays were diluted 25-fold in Opti-MEM (without serum or phenol red) to a final concentration of 0.0004 μg/μL and 20 μL of the diluted DNAs were transferred into new 96-well plates. Next, promoterless carrier DNA (1 μg/μL) was diluted 25-fold (0.04 μg/μL) and then dispensed into the diluted arrays at 20 μL/well. Following brief mixing, Viafect transfection reagent (Promega) diluted 16-fold into Opti-MEM was dispensed into the plates at 40 μL/well. After mixing by pipetting, plates were incubated for 10 min on the pipetting station deck. The DNA-transfection reagent complexes were then added to plates containing cells. To facilitate the screen, 10 μL of DNA-transfection reagent complexes were added in duplicates to the top 4 and bottom 4 rows, resulting in two identical 48-well arrays per plate. Plates with transfected cells were incubated for 18–20 h at 37 °C/5% CO2. A screen of each tracer across the entire library using two different concentrations requires duplicate plates of transfected cells. Depending on the number of tracers being screened, transfections can be scaled up using the same ratios. The next day, for each tracer, four 20× screening solutions in tracer dilution buffer (Promega) were prepared: two duplicates at final concentration of 20 μM and two duplicates at a final concentration of 2 μM. A competing unmodified compound was added to one of each duplicate at a final concentration of 400 μM. The four resulting solutions were diluted 4-fold in Opti-MEM without serum or phenol red to generate 5× solutions (5 µM and 0.5 µM tracer +/− 100 μM competing compound). To screen the library, a BioTek MultiFlo FX liquid dispenser was used to dispense 22.5 µL of tracer solution to the top 4 rows and 22.5 µL tracer + competing compound solution to the 4 bottom rows. Plates were briefly mixed on an orbital shaker and incubated for 1.5 h at room temperature. […]

ADORA3 = molecular target: T2, ADORA3 (Homo sapiens, UniProt P0DMS8); experiment: NanoBRET screen HiBiT-ADORA3 in HEK293
T2 construct: purchased Promega (in-house HiBiT-GPCR construct library, NanoBRET)
T2 sequence (P0DMS8 1-318): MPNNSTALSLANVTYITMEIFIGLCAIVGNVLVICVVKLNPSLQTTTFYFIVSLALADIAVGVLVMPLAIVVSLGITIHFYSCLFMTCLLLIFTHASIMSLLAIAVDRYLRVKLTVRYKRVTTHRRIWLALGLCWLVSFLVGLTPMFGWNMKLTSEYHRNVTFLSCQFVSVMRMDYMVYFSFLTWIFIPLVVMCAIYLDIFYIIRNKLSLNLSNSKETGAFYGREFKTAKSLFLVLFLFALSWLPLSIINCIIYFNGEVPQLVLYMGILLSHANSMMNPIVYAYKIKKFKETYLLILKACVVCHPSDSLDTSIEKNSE
Method: as §1, §2

P2RY6 = molecular target: T3, P2RY6 (Homo sapiens, UniProt Q15077); experiment: NanoBRET screen HiBiT-P2RY6 in HEK293
T3 construct: purchased Promega (in-house HiBiT-GPCR construct library, NanoBRET)
T3 sequence (Q15077 whole entry): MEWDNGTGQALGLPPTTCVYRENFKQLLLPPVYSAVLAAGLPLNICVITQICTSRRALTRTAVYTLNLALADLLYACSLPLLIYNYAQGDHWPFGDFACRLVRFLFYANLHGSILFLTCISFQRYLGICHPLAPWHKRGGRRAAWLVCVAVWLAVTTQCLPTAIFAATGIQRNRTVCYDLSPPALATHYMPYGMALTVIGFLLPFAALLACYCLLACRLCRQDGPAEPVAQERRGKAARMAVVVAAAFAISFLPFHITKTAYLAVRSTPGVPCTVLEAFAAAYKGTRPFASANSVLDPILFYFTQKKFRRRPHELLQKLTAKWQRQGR
Method: as §1, §2

OPRK1 = molecular target: T4, OPRK1 (Homo sapiens, UniProt P41145); experiment: NanoBRET screen HiBiT-OPRK1 in HEK293
T4 construct: purchased Promega (in-house HiBiT-GPCR construct library, NanoBRET)
T4 sequence (P41145 whole entry): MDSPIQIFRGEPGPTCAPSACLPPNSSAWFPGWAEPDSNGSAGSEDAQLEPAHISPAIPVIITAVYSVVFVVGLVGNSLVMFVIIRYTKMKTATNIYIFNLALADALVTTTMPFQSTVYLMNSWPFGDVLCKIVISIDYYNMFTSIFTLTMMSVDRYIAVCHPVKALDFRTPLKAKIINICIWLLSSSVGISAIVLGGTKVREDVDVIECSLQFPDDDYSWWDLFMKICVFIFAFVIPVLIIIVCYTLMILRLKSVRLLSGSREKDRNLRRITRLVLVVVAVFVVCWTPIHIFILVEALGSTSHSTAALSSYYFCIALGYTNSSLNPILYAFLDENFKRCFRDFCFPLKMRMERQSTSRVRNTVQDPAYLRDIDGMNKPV
Summary of the method: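 Fold response (BRETtracer/BRETcontrol ≥1.5 = positive) was determined in HEK293 cells bearing HiBiT-GPCR fusions. Tracer, 1 μM or 0.1 μM, 1.5 h at room temperature; control wells contained 20 μM competing parental compound.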

FZD7 = molecular target: T5, FZD7 (Homo sapiens, UniProt O75084); experiment: NanoBRET screen HiBiT-FZD7 in HEK293
T5 construct: purchased Promega (in-house HiBiT-GPCR construct library, NanoBRET)
Method: as §1, §2

FPR1 = molecular target: T6, FPR1 (Homo sapiens, UniProt P21462); experiment: NanoBRET screen HiBiT-FPR1 in HEK293
T6 construct: purchased Promega (in-house HiBiT-GPCR construct library, NanoBRET)
T6 sequence (P21462 1-350): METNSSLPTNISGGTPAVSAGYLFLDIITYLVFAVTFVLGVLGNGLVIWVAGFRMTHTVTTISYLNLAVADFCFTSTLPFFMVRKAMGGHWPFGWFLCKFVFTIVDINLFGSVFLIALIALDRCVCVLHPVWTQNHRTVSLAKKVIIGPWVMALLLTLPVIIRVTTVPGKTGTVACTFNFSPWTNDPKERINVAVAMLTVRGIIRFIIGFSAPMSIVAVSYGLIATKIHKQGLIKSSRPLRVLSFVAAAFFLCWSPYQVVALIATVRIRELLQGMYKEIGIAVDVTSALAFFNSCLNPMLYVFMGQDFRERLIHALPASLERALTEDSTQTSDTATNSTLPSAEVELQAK
Method: as §1, §2

T1 sequence (Q13467 27-585): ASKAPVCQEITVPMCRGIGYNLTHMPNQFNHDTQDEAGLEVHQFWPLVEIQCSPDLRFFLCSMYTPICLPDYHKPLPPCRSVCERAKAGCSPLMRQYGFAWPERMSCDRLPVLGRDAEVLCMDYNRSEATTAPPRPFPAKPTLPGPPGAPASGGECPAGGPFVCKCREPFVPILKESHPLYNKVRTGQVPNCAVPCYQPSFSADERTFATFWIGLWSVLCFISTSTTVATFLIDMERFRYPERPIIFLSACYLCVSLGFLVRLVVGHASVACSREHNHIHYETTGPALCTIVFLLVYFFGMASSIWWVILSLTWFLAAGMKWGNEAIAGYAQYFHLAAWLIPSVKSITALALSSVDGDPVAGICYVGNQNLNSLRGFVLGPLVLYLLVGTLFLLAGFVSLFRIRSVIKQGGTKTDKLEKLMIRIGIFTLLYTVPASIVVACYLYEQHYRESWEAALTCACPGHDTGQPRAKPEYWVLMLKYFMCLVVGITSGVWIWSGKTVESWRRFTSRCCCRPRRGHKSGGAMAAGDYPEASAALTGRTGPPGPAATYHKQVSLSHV

In the case of `O=C(CCc1ccc2n1[B-](F)(F)[N+]1=C(c3ccc[nH]3)C=CC1=C2)NCc1ccc(C(=O)NCCOCCC(=O)N[C@@H]2CC[C@@]3(O)[C@H]4Cc5ccc(O)c6c5[C@@]3(CCN4CC3CC3)[C@H]2O6)cc1` [Naltrexone-3-NB590], the “NanoBRET Fold Response” value (FZD5; FZD5, tracer 0.1μM) is reported as 0.99, the “NanoBRET Fold Response” value (FZD5; FZD5, tracer 1μM) is reported as 0.98 and the “NanoBRET Fold Response” value (ADORA3; ADORA3, tracer 0.1μM) is reported as 0.77. The “NanoBRET Fold Response” value (ADORA3; ADORA3, tracer 1μM) was 0.84, the “NanoBRET Fold Response” value (P2RY6; P2RY6, tracer 0.1μM) was 0.84 and the “NanoBRET Fold Response” value (P2RY6; P2RY6, tracer 1μM) was 0.81. The “NanoBRET Fold Response” value (OPRK1; OPRK1, tracer 0.1μM) was 2.19, the “NanoBRET Fold Response” value (OPRK1; OPRK1, tracer 1μM) was 1.53 and the “NanoBRET Fold Response” value (FZD7; FZD7, tracer 0.1μM) was 1.32. The “NanoBRET Fold Response” value (FZD7; FZD7, tracer 1μM) was 1.27, the “NanoBRET Fold Response” value (FPR1; FPR1, tracer 0.1μM) was 0.90 and the “NanoBRET Fold Response” value (FPR1; FPR1, tracer 1μM) was 0.98.
With `COc1ccccc1N1CCN(CCCCN2C(=O)c3ccc(CNC(=O)CCOCCNC(=O)c4ccc(CNC(=O)CCc5ccc6n5[B-](F)(F)[N+]5=C(c7ccc[nH]7)C=CC5=C6)cc4)cc3C2=O)CC1` [NAN-190-3-NB590] the “NanoBRET Fold Response” value (FZD5; FZD5, tracer 0.1μM) was 0.97, the “NanoBRET Fold Response” value (FZD5; FZD5, tracer 1μM) was 1.00 and the “NanoBRET Fold Response” value (ADORA3; ADORA3, tracer 0.1μM) was 0.97. For the same compound, the “NanoBRET Fold Response” value (ADORA3; ADORA3, tracer 1μM) was 1.19, the “NanoBRET Fold Response” value (P2RY6; P2RY6, tracer 0.1μM) was 1.10 and the “NanoBRET Fold Response” value (P2RY6; P2RY6, tracer 1μM) was 0.91. For the same compound, the “NanoBRET Fold Response” value (OPRK1; OPRK1, tracer 0.1μM) was 0.89, the “NanoBRET Fold Response” value (OPRK1; OPRK1, tracer 1μM) was 1.16 and the “NanoBRET Fold Response” value (FZD7; FZD7, tracer 0.1μM) was 0.94. For the same compound, the “NanoBRET Fold Response” value (FZD7; FZD7, tracer 1μM) was 1.27, the “NanoBRET Fold Response” value (FPR1; FPR1, tracer 0.1μM) was 0.95 and the “NanoBRET Fold Response” value (FPR1; FPR1, tracer 1μM) was 1.09.
With `Cc1cc2c(s1)Nc1ccccc1N=C2N1CCN(CCCNC(=O)CCOCCOCCOCCOCCNC(=O)CCc2ccc3n2[B-](F)(F)[N+]2=C(c4ccc[nH]4)C=CC2=C3)CC1` [Olanzapine-a-2-NB590] the “NanoBRET Fold Response” value (FZD5; FZD5, tracer 0.1μM) was 1.00, the “NanoBRET Fold Response” value (FZD5; FZD5, tracer 1μM) was 1.02 and the “NanoBRET Fold Response” value (ADORA3; ADORA3, tracer 0.1μM) was 0.94. For the same compound, the “NanoBRET Fold Response” value (ADORA3; ADORA3, tracer 1μM) was 1.13, the “NanoBRET Fold Response” value (P2RY6; P2RY6, tracer 0.1μM) was 1.31 and the “NanoBRET Fold Response” value (P2RY6; P2RY6, tracer 1μM) was 0.95. The “NanoBRET Fold Response” value (OPRK1; OPRK1, tracer 0.1μM) was 0.92, the “NanoBRET Fold Response” value (OPRK1; OPRK1, tracer 1μM) was 1.16 and the “NanoBRET Fold Response” value (FZD7; FZD7, tracer 0.1μM) was 1.03. For the same compound, the “NanoBRET Fold Response” value (FZD7; FZD7, tracer 1μM) was 0.95, the “NanoBRET Fold Response” value (FPR1; FPR1, tracer 0.1μM) was 1.09 and the “NanoBRET Fold Response” value (FPR1; FPR1, tracer 1μM) was 1.01.
`CCCn1c(=O)c2[nH]c(-c3ccc(OCC(=O)NCCNC(=O)CCOCCNC(=O)c4ccc(CNC(=O)CCc5ccc6n5[B-](F)(F)[N+]5=C(c7ccc[nH]7)C=CC5=C6)cc4)cc3)nc2n(CCC)c1=O` [XAC-3-NB590] was tested, and the “NanoBRET Fold Response” value (FZD5; FZD5, tracer 0.1μM) was 1.13, the “NanoBRET Fold Response” value (FZD5; FZD5, tracer 1μM) was 0.95 and the “NanoBRET Fold Response” value (ADORA3; ADORA3, tracer 0.1μM) was 12.13. The “NanoBRET Fold Response” value (ADORA3; ADORA3, tracer 1μM) was 6.72, the “NanoBRET Fold Response” value (P2RY6; P2RY6, tracer 0.1μM) was 1.06 and the “NanoBRET Fold Response” value (P2RY6; P2RY6, tracer 1μM) was 1.12. The “NanoBRET Fold Response” value (OPRK1; OPRK1, tracer 0.1μM) was 0.97, the “NanoBRET Fold Response” value (OPRK1; OPRK1, tracer 1μM) was 1.34 and the “NanoBRET Fold Response” value (FZD7; FZD7, tracer 0.1μM) was 1.09. The “NanoBRET Fold Response” value (FZD7; FZD7, tracer 1μM) was 1.01, the “NanoBRET Fold Response” value (FPR1; FPR1, tracer 0.1μM) was 1.15 and the “NanoBRET Fold Response” value (FPR1; FPR1, tracer 1μM) was 1.10.
For `COc1ccc2c(n1)c(CCNC(C)=O)cn2CCNC(=O)CCc1ccc2n1[B-](F)(F)[N+]1=C(c3ccc[nH]3)C=CC1=C2` [Azamelatonin-1-NB590], the “NanoBRET Fold Response” value (FZD5; 0.1μM tracer) was 0.88, the “NanoBRET Fold Response” value (FZD5; 1μM tracer) was 0.88 and the “NanoBRET Fold Response” value (ADORA3; 0.1μM tracer) was 1.01. For the same compound, the “NanoBRET Fold Response” value (ADORA3; 1μM tracer) was 1.02, the “NanoBRET Fold Response” value (P2RY6; 0.1μM tracer) was 1.01 and the “NanoBRET Fold Response” value (P2RY6; 1μM tracer) was 1.01. The “NanoBRET Fold Response” value (OPRK1; 0.1μM tracer) was 0.92, the “NanoBRET Fold Response” value (OPRK1; 1μM tracer) was 0.92 and the “NanoBRET Fold Response” value (FZD7; 0.1μM tracer) was 1.11. The “NanoBRET Fold Response” value (FZD7; 1μM tracer) was 1.11, the “NanoBRET Fold Response” value (FPR1; 0.1μM tracer) was 0.96 and the “NanoBRET Fold Response” value (FPR1; 1μM tracer) was 1.09.
